One may read the MIC as the smallest concentration in the dilution series that meets the test's criterion for growth inhibition.

The values below come from ChEMBL document CHEMBL4665709, “Rational Avoidance of Protease Cleavage Sites and Symmetrical End-Tagging Significantly Enhances the Stability and Therapeutic Potential of Antimicrobial Peptides” (J Med Chem, 2020).

≈ marks a conversion by molar mass, not a printed value. Where a SMILES comes first, the peptide text is derived from it.

The test system of data set [1] is Escherichia coli. The data set can be described thus: Antibacterial activity against Escherichia coli ATCC 25922 after 18 to 24 hrs in presence of 4.5 mM K+ by CLSI-based broth microdilution method. The format is functional. As to conditions: time hrs 18-24.
Data set [2] concerns RAW264.7. The data set can be described thus: Antiinflammatory activity in mouse RAW264.7 cells assessed as inhibition of LPS-induced IL-6 production after 24 hrs by ELISA. Type of data set: functional, cell-based.
The nature of data set [3]: Stability of compound assessed as pepsin (unknown origin)-mediated drug degradation after 8 hrs by SDS-PAGE analysis. Type of data set: ADME. As to conditions: human.
Data set [4] concerns Salmonella enterica. The data set can be described thus: Antibacterial activity against Salmonella choleraesuis 503 after 18 to 24 hrs by CLSI-based broth microdilution method. The format is functional. The note with it: time hrs 18-24.
Data set [5] is described as follows: Therapeutic index, ratio of MHC for human RBC to geometric mean of peptide MIC for Salmonella choleraesuis 503. The format is toxicity. The note with it: human red blood cells (RBC), read-out: TI.

`CC[C@H](C)[C@H](N)C(=O)N[C@H](C(=O)N[C@H](C(=O)N[C@@H](CS)C(=O)N[C@@H](CCCNC(=N)N)C(=O)N[C@@H](CCCCN)C(=O)N1CCC[C@H]1C(=O)N[C@H](C(=O)N[C@H](C(=O)N[C@@H](CS)C(=O)N[C@@H](CCCNC(=N)N)C(=O)N[C@@H](CCCCN)C(=O)N1CCC[C@H]1C(=O)N[C@H](C(=O)N[C@H](C(=O)N[C@@H](CS)C(=O)N[C@@H](CCCNC(=N)N)C(=O)N[C@@H](CCCCN)C(=O)N1CCC[C@H]1C(=O)N[C@H](C(=O)N[C@H](C(=O)N[C@@H](CS)C(=O)N[C@@H](CCCNC(=N)N)C(=O)N[C@@H](CCCCN)C(=O)N1CCC[C@H]1C(=O)N[C@H](C(=O)N[C@H](C(=O)N[C@H](C(N)=O)[C@@H](C)CC)[C@@H](C)CC)[C@@H](C)CC)[C@@H](C)CC)[C@@H](C)CC)[C@@H](C)CC)[C@@H](C)CC)[C@@H](C)CC)[C@@H](C)CC)[C@@H](C)CC)[C@@H](C)CC` (H-IIICRKPIICRKPIICRKPIICRKPIII-NH2): the MIC is 2 µM in data set [1] and 2 µM (≈ 6.63 µg/mL) in data set [4]. Further, the Activity entry in data set [2] is “Dose-dependent effect”. In addition, the Stabilty result in data set [3] is on record as “Stable”. In addition, in data set [5], the selectivity ratio was found to be 57.
